Legend:
[1] = biological target: CAAX farnesyltransferase (Rattus norvegicus, UniProt Q02293+Q04631); assay: In vitro inhibition of CAAX farnesyltransferase; type: biochemical; set-up: purified to homogeneity from rat brain homogenates; from tissue; host or cells: rat brain; alternatively recombinant enzyme from a baculovirus expression system; conditions: FIG. 1A
Procedure, shortened: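 Native or recombinant (baculovirus-infected cells, Q-Sepharose purified) farnesyltransferase incubated 30 min at 37 °C. [3H]farnesyl transfer to p21H-ras measured by SDS/trichloroacetic acid precipitation, nitrocellulose filtration and scintillation counting.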

[2] = test system: nuclear lamins A and B in Met18b-2 cells; assay: [3H]mevalonate labeling of farnesylated nuclear lamins in Met18b-2 cells; type: cell-based, Chinese hamster; conditions: 250 μM; FIG. 3
Description: To study farnesylation in intact cells we used Met18b-2 cells, a line of Chinese hamster ovary (CHO) cells that takes up [3H]mevalonate efficiently (see Faust, J., and Krieger, M. J. Biol. Chem. 262, 1966 (1987)) owing to the production of a mevalonate transport protein (see Kim, C. M., Goldstein, J. L., Brown, M. S. J. Biol. Chem. 267, 23113 (1992)). The [3H]mevalonate is converted by the cells into [3H]farnesyl pyrophosphate and [3H]geranylgeranyl pyrophosphate, which are then attached to proteins (Kim, C. M., Goldstein, J. L., Brown, M. S. J. Biol. Chem. 267, 23113 (1992)). In the assay, stock cultures of Met18b-2 cells were seeded at a density of 3-105 cells per 60 mm dish in 3 ml of medium A (Dulbecco's modified Eagle medium/Ham's F12 medium (1:1, v/v) containing 100 U/ml penicillin and 100 μg/ml streptomycin) supplemented with 5% (v/v) fetal calf serum (FCS). On day 3, each monolayer was refed with 1 ml medium A supplemented with 1% FCS (dialyzed against 0.15 M NaCl). At this point the cells were treated with 100 μM compactin (see Brown, M. S., Faust, J. R., Goldstein, J. L., Kaneko, I., and Endo, A. J. Biol. Chem. 253, 1121 (1978)) which blocks the synthesis of unlabeled mevalonate within the cells. […] Protein concentrations were determined using the BCA protein assay reagent (Pierce) according to the manufacturer's instructions. […]

[3] = test system: Hela cells; assay: Growth inhibition of human tumor line Hela; type: cell-based; conditions: cervix, not ras transformed, read-out: % growth inhib.
Protocol: To examine the effects of farnesyltransferase inhibition on cell growth, three cell lines (ras-transformed rat-1, src-transformed rat-1, and parental rat-1 cells) were seeded (see FIG. 7) at low density and allowed to grow for 10 days in the absence or presence of increasing concentrations of BZA-5B (compound 37). See Example 128 for description of cells. On day 0, cells were plated in monolayer culture at 2×10^3 cells per well (24-well plates) in 1 ml DMEM supplemented with 10% fetal calf serum, 100 U/ml penicillin, 100 μg/ml streptomycin, 0.5 mM DTT, 0.025% DMSO, and the indicated concentration of BZA-5B (compound 37). On days 3 and 7, cells were washed and refed with the same medium. At the time indicated in FIG. 7, cells were harvested by trypsinization and counted in a Coulter counter. Panels A, C, E show the growth rate of each cell line in the absence of inhibitor. Panels B, D, F show the inhibition of growth as a function of concentration of BZA-5B at each time point. […]
To examine the effects of farnesyltransferase inhibition on the growth of human tumor cell lines, several such lines were treated with 25 μM BZA-5B (compound 37B) using a procedure similar to that described in Example 129 above. Cells were refed with fresh media at days 3 and 6 containing the inhibitor, and were harvested and counted as described above. […]

Chain of CAAX farnesyltransferase (Q02293 whole entry, one chain of several): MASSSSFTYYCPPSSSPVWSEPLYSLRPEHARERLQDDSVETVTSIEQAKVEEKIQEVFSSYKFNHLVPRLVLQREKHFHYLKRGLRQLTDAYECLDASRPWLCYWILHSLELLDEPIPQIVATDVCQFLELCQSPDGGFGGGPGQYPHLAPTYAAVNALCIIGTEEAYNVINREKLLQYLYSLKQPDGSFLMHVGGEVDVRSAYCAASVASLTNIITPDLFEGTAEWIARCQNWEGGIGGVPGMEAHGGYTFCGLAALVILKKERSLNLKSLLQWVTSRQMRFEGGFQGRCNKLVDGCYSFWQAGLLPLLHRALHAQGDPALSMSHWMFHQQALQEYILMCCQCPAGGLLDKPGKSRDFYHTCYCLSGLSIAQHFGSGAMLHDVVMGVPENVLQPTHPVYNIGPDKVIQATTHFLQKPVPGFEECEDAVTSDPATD

Row | SMILES | IC50 ([1]; recombinant enzyme, read-out: concentration inhibiting recombinant ras CAAX farnesyltransferase by 50%) [nM] | fold lower inhibitory concentration than tetrapeptide CVFM ([1]; vs CVFM) [fold] | labeling of farnesylated lamins (F-NL) [2] | inhibition at 25 µM [3] [%]
1 | CSCC[C@H](NC(=O)CN1C(=O)C(N(C)C(=O)[C@@H](N)CS)N=C(c2ccccc2)c2ccccc21)C(=O)O (single isomer, unassigned) [27B] | 0.26 | ~200 | reduced moderately the labeling of the farnesylated lamins | 
2 | COC(=O)[C@H](CCSC)NC(=O)CN1C(=O)C(N(C)C(=O)[C@@H](N)CS)N=C(c2ccccc2)c2ccccc21 (single isomer, unassigned) [37B] |  |  |  | 0

— patent US5843941A, “Ras farnesyl transferase inhibitors” (Genentech, Inc., priority 1994, dated 1998)
